In US9527867B2, “Antibacterial biaromatic derivatives” (Actelion Pharmaceuticals Ltd., priority 2013, dated 2016):
Values after ≈ are worked out from the molar mass of the structure shown.

Tests used:
Assay in all cases: Bacterial growth minimal inhibitory concentration (broth microdilution, CLSI M7-A7)
Format in all cases: cell-based
[1] = test system: Staphylococcus aureus A798; conditions: multiply-resistant strain (in particular quinolone-resistant); for MIC for S. aureus A798: cation-adjusted Mueller-Hinton Broth; for MIC: Staphylococcus aureus, A798, cation-adjusted Mueller-Hinton Broth, read-out: MIC for S. aureus A798
Experimental: (§1) Minimal Inhibitory Concentrations (MICs; mg/L) were determined in cation-adjusted Mueller-Hinton Broth by a microdilution method following the description given in “Methods for Dilution Antimicrobial Susceptibility Tests for Bacteria that Grow Aerobically”, Approved standard, 7th ed., Clinical and Laboratory Standards Institute (CLSI) Document M7-A7, Wayne, Pa., USA (2006).
(§2) All Example compounds were tested against several Gram positive and Gram negative bacteria. […] Staphylococcus aureus A798, Enterococcus faecium A949 and Acinetobacter baumannii T6474 are multiply-resistant strains (in particular quinolone-resistant), while Moraxella catarrhalis A894 is a quinolone-sensitive strain and Staphylococcus aureus ATCC29213 is a methicillin-sensitive and quinolone-sensitive strain.

[2] = test system: Moraxella catarrhalis A894; conditions: quinolone-sensitive strain; for MIC for M. catarrhalis A894: cation-adjusted Mueller-Hinton Broth; for MIC: Moraxella catarrhalis, A894, cation-adjusted Mueller-Hinton Broth
Experimental: as §1, §2

[3] = test system: Enterococcus faecium A949; conditions: multiply-resistant strain (in particular quinolone-resistant); for MIC for E. faecium A949: cation-adjusted Mueller-Hinton Broth; for MIC: Enterococcus faecium, A949, cation-adjusted Mueller-Hinton Broth, read-out: MIC for E. faecium A949
Experimental: as §1, §2

[4] = test system: Staphylococcus aureus ATCC29213; conditions: methicillin-sensitive and quinolone-sensitive strain; for MIC for S. aureus ATCC29213: cation-adjusted Mueller-Hinton Broth; for MIC: Staphylococcus aureus, ATCC29213, cation-adjusted Mueller-Hinton Broth, read-out: MIC for S. aureus ATCC29213
Experimental: as §1, §2

[5] = test system: Acinetobacter baumannii T6474; conditions: multiply-resistant strain (in particular quinolone-resistant); for MIC for A. baumannii T6474: cation-adjusted Mueller-Hinton Broth; for MIC: Acinetobacter baumannii, T6474, cation-adjusted Mueller-Hinton Broth
Experimental: as §1, §2

MIC [1]	MIC [2]	MIC [3]	MIC [4]	MIC [5]	Molecule	MIC for S. aureus A798 [1]	MIC for M. catarrhalis A894 [2]	MIC for E. faecium A949 [3]	MIC for S. aureus ATCC29213 [4]	MIC for A. baumannii T6474 [5]
–	–	–	–	–	COc1cccc(-c2cccc(CNCC[C@H]3CN(c4ccc5c(n4)NC(=O)CS5)C(=O)O3)c2O)n1 [Example 95, 6-((S)-5-{2-[2-hydroxy-3-(6-methoxy-pyridin-2-yl)-benzylamino]-ethy}-2-oxo-oxazolidin-3-yl)-4H-pyrido[3,2-b][1,4]thiazin-3-one]	≦0.016 mg/L	≦0.016 mg/L	0.125 µg/mL	≦0.016 mg/L	0.063 µg/mL
1 µg/mL (≈ 2.04 µM)	0.063 µg/mL (≈ 0.129 µM)	4 µg/mL (≈ 8.17 µM)	1 µg/mL (≈ 2.04 µM)	4 µg/mL (≈ 8.17 µM)	COc1ccc(-c2cccc(CNCC[C@@H]3CN(c4ccc5c(c4)NC(=O)CS5)C(=O)O3)c2)cc1 [Example 6, 6-((R)-5-{2-[(4′-methoxy-biphenyl-3-ylmethyl)-amino]-ethyl}-2-oxo-oxazolidin-3-yl)-4H-benzo[1,4]thiazin-3-one]	–	–	–	–	–
0.5 µg/mL (≈ 1.02 µM)	0.063 µg/mL (≈ 0.128 µM)	2 µg/mL (≈ 4.08 µM)	0.5 µg/mL (≈ 1.02 µM)	1 µg/mL (≈ 2.04 µM)	COc1ccc(-c2cccc(CNCC[C@@H]3CN(c4ccc5c(c4)NC(=O)CS5)C(=O)O3)c2)cn1 [Example 16, 6-((R)-5-{2-[3-(6-methoxy-pyridin-3-yl)-benzylamino]-ethyl}-2-oxo-oxazolidin-3-yl)-4H-benzo[1,4]thiazin-3-one]	–	–	–	–	–
8 µg/mL (≈ 16.8 µM)	0.25 µg/mL (≈ 0.525 µM)	> 8 µg/mL	4 µg/mL (≈ 8.39 µM)	4 µg/mL (≈ 8.39 µM)	COc1cccc(-c2cc(CNCC[C@H]3CN(c4ccc5c(n4)NC(=O)CO5)C(=O)O3)cnn2)c1 [Example 105, 6-[(S)-5-(2-{[6-(3-methoxy-phenyl)-pyridazin-4-ylmethyl]-amino}-ethyl)-2-oxo-oxazolidin-3-yl]-4H-pyrido[3,2-b][1,4]oxazin-3-one]	–	–	–	–	–
2 µg/mL (≈ 3.86 µM)	0.125 µg/mL (≈ 0.241 µM)	16 µg/mL (≈ 30.9 µM)	2 µg/mL (≈ 3.86 µM)	8 µg/mL (≈ 15.4 µM)	COCCOc1cccc(-c2cccc(CNCC[C@H]3CN(c4ccc5c(n4)NC(=O)CO5)C(=O)O3)c2)c1 [Example 54, 6-[(S)-5-(2-{[3′-(2-methoxy-ethoxy)-biphenyl-3-ylmethyl]-amino}-ethyl)-2-oxo-oxazolidin-3-yl]-4H-pyrido[3,2-b][1,4]oxazin-3-one]	–	–	–	–	–
0.063 µg/mL (≈ 0.132 µM)	≤ 0.016 µg/mL	2 µg/mL (≈ 4.2 µM)	0.125 µg/mL (≈ 0.262 µM)	0.25 µg/mL (≈ 0.525 µM)	COc1cccc(-c2cc(CNCC[C@H]3CN(c4ccc5c(n4)NC(=O)CO5)C(=O)O3)ccn2)n1 [Example 87, 6-((S)-5-{2-[(6′-methoxy-[2,2]bipyridinyl-4-ylmethyl)-amino]-ethyl}-2-oxo-oxazolidin-3-yl)-4H-pyrido[3,2-b][1,4]oxazin-3-one]	–	–	–	–	–
0.125 µg/mL (≈ 0.254 µM)	≤ 0.016 µg/mL	2 µg/mL (≈ 4.07 µM)	0.125 µg/mL (≈ 0.254 µM)	1 µg/mL (≈ 2.03 µM)	COc1ccnc(-c2cccc(CNCC[C@H]3CN(c4ccc5c(n4)NC(=O)CO5)C(=O)O3)c2O)c1 [Example 106, 6-((S)-5-{2-[2-hydroxy-3-(4-methoxy-pyridin-2-yl)-benzylamino]-ethyl}-2-oxo-oxazolidin-3-yl)-4H-pyrido[3,2-b][1,4]oxazin-3-one]	–	–	–	–	–
–	–	–	–	–	6-(5-{2-[(3′-methoxy-biphenyl-3-ylmethyl)-amino]-ethyl}-2-oxo-oxazol-3-yl)-4H-pyrido[3,2-b][1,4]oxazin-3-one [Example 34]	0.125 µg/mL	≦0.016 mg/L	1 µg/mL	0.125 µg/mL	0.25 µg/mL
1 µg/mL (≈ 2.01 µM)	0.031 µg/mL (≈ 0.0622 µM)	4 µg/mL (≈ 8.02 µM)	0.5 µg/mL (≈ 1 µM)	2 µg/mL (≈ 4.01 µM)	COc1ccc(C#N)c(-c2cccc(CNCCc3nn(-c4ccc5c(n4)NC(=O)CO5)c(=O)o3)c2)c1 [Example 52, 5-methoxy-3′-({2-[5-oxo-4-(3-oxo-3,4-dihydro-2H-pyrido[3,2-b][1,4]oxazin-6-yl)-4,5-dihydro-[1,3,4]oxadiazol-2-yl]-ethylamino}-methyl)-biphenyl-2-carbonitrile]	–	–	–	–	–
0.125 µg/mL (≈ 0.262 µM)	≤ 0.016 µg/mL	8 µg/mL (≈ 16.8 µM)	0.25 µg/mL (≈ 0.525 µM)	0.25 µg/mL (≈ 0.525 µM)	COc1cnnc(-c2cccc(CNCC[C@H]3CN(c4ccc5c(n4)NC(=O)CO5)C(=O)O3)c2)c1 [Example 44, 6-((S)-5-{2-[3-(5-methoxy-pyridazin-3-yl)-benzylamino]-ethyl}-2-oxo-oxazolidin-3-yl)-4H-pyrido[3,2-b][1,4]oxazin-3-one]	–	–	–	–	–
1 µg/mL (≈ 1.97 µM)	0.125 µg/mL (≈ 0.246 µM)	8 µg/mL (≈ 15.8 µM)	1 µg/mL (≈ 1.97 µM)	2 µg/mL (≈ 3.94 µM)	COc1cccc(-c2cc(CNCC[C@@H]3CN(c4ccc5c(c4)NC(=O)CS5)C(=O)O3)ccc2F)c1 [Example 11, 6-((R)-5-{2-[(6-fluoro-3′-methoxy-biphenyl-3-ylmethyl)-amino]-ethyl}-2-oxo-oxazolidin-3-yl)-4H-benzo[1,4]thiazin-3-one]	–	–	–	–	–
2 µg/mL (≈ 3.96 µM)	≤ 0.063 µg/mL	16 µg/mL (≈ 31.7 µM)	1 µg/mL (≈ 1.98 µM)	16 µg/mL (≈ 31.7 µM)	COc1ccc(OC)c(-c2cccc(CNCC[C@H]3CN(c4ccc5c(n4)NC(=O)CO5)C(=O)O3)c2)c1 [Example 64, 6-((S)-5-{2-[(2′,5′-dimethoxy-biphenyl-3-ylmethyl)-amino]-ethyl}-2-oxo-oxazolidin-3-yl)-4H-pyrido[3,2-b][1,4]oxazin-3-one]	–	–	–	–	–
0.5 µg/mL (≈ 1.02 µM)	0.063 µg/mL (≈ 0.128 µM)	2 µg/mL (≈ 4.07 µM)	0.25 µg/mL (≈ 0.509 µM)	1 µg/mL (≈ 2.03 µM)	COc1cccc(-c2cccc(CNCC[C@@H]3CN(c4ccc5c(c4)NC(=O)CS5)C(=O)O3)n2)n1 [Example 22, 6-((R)-5-{2-[(6′-methoxy-[2,2]bipyridinyl-6-ylmethyl)-amino]-ethyl}-2-oxo-oxazolidin-3-yl)-4H-benzo[1,4]thiazin-3-one]	–	–	–	–	–
1 µg/mL (≈ 2.1 µM)	0.063 µg/mL (≈ 0.132 µM)	2 µg/mL (≈ 4.2 µM)	0.25 µg/mL (≈ 0.525 µM)	0.5 µg/mL (≈ 1.05 µM)	COc1cccc(-c2cnnc(CNCC[C@H]3CN(c4ccc5c(n4)NC(=O)CO5)C(=O)O3)c2)c1 [Example 103, 6-[(S)-5-(2-{[5-(3-methoxy-phenyl)-pyridazin-3-ylmethyl]-amino}-ethyl)-2-oxo-oxazolidin-3-yl]-4H-pyrido[3,2-b][1,4]oxazin-3-one]	–	–	–	–	–
≤ 0.016 µg/mL	≤ 0.016 µg/mL	0.5 µg/mL (≈ 1.03 µM)	0.031 µg/mL (≈ 0.0637 µM)	0.063 µg/mL (≈ 0.129 µM)	N#Cc1cccc(-c2cccc(CNCC[C@H]3CN(c4ccc5c(n4)NC(=O)CO5)C(=O)O3)c2O)n1 [Example 92, 6-[2-hydroxy-3-({2-[(S)-2-oxo-3-(3-oxo-3,4-dihydro-2H-pyrido[3,2-b][1,4]oxazin-6-yl)-oxazolidin-5-yl]-ethylamino}-methyl)-phenyl]-pyridine-2-carbonitrile]	–	–	–	–	–
1 µg/mL (≈ 1.83 µM)	0.125 µg/mL (≈ 0.229 µM)	> 8 µg/mL	1 µg/mL (≈ 1.83 µM)	8 µg/mL (≈ 14.6 µM)	CCOC(=O)COc1cccc(-c2cccc(CNCC[C@H]3CN(c4ccc5c(n4)NC(=O)CO5)C(=O)O3)c2)c1 [Example 68, [3′-({2-[(S)-2-oxo-3-(3-oxo-3,4-dihydro-2H-pyrido[3,2-b][1,4]oxazin-6-yl)-oxazolidin-5-yl]-ethylamino}-methyl)-biphenyl-3-yloxy]-acetic acid ethyl ester]	–	–	–	–	–
2 µg/mL (≈ 4.27 µM)	0.031 µg/mL (≈ 0.0662 µM)	8 µg/mL (≈ 17.1 µM)	1 µg/mL (≈ 2.13 µM)	0.5 µg/mL (≈ 1.07 µM)	N#Cc1cccc(-c2cc(CNCCc3cn(-c4ccc5c(n4)NC(=O)CO5)c(=O)o3)ccn2)c1 [Example 49, 3-[4-({2-[2-oxo-3-(3-oxo-3,4-dihydro-2H-pyrido[3,2-b][1,4]oxazin-6-yl)-2,3-dihydro-oxazol-5-yl]-ethylamino}-methyl)-pyridin-2-yl]-benzonitrile]	–	–	–	–	–
1 µg/mL (≈ 1.99 µM)	0.125 µg/mL (≈ 0.249 µM)	> 8 µg/mL	1 µg/mL (≈ 1.99 µM)	1 µg/mL (≈ 1.99 µM)	N#Cc1cnc(O)c(-c2cccc(CNCC[C@@H]3CN(c4ccc5c(c4)NC(=O)CS5)C(=O)O3)c2)c1 [Example 19, 6-hydroxy-5-[3-({2-[(R)-2-oxo-3-(3-oxo-3,4-dihydro-2H-benzo[1,4]thiazin-6-yl)-oxazolidin-5-yl]-ethylamino}-methyl)-phenyl]-nicotinonitrile]	–	–	–	–	–
≤ 0.016 µg/mL	≤ 0.016 µg/mL	0.5 µg/mL (≈ 1.03 µM)	≤ 0.016 µg/mL	0.125 µg/mL (≈ 0.257 µM)	N#Cc1cccc(-c2cccc(CNCC[C@H]3CN(c4ccc5c(n4)NC(=O)CS5)C(=O)O3)c2)c1 [Example 100, 3′-({2-[(S)-2-oxo-3-(3-oxo-3,4-dihydro-2H-pyrido[3,2-b][1,4]thiazin-6-yl)-oxazolidin-5-yl]-ethylamino}-methyl)-biphenyl-3-carbonitrile]	–	–	–	–	–
1 µg/mL (≈ 1.93 µM)	0.125 µg/mL (≈ 0.241 µM)	16 µg/mL (≈ 30.9 µM)	2 µg/mL (≈ 3.86 µM)	4 µg/mL (≈ 7.71 µM)	O=C1COc2ccc(N3C[C@H](CCNCc4cccc(-c5cccc(OCCCO)c5)c4)OC3=O)nc2N1 [Example 53, 6-[(S)-5-(2-{[3′-(3-hydroxy-propoxy)-biphenyl-3-ylmethyl]-amino}-ethyl)-2-oxo-oxazolidin-3-yl]-4H-pyrido[3,2-b][1,4]oxazin-3-one]	–	–	–	–	–
